Patent publication US20220119354A1, “DIAMINO-SUBSTITUTED PYRIDINES AND PYRIMIDINES AS HERBICIDES” (FMC Corporation, priority 2019, published 2022)

How the values were obtained:
Assay type in all cases: in vivo
[1] = test system: ragweed (common ragweed, Ambrosia elatior); test: Test A postemergence, ragweed; details: 0 to 100 scale
Method in brief: (§1)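 Visual injury scores (0 no effect to 100 complete control) were assigned about 10 d after treatment by comparison with untreated controls. Test chemicals, formulated in a surfactant-containing non-phytotoxic solvent, were applied to soil at planting or to plants at the one- to two-leaf stage.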

[2] = test system: pigweed (Amaranthus retroflexus); test: Test A postemergence, pigweed; details: 0 to 100 scale
Method in brief: as §1

[3] = test system: ducksalad (Heteranthera limosa); test: Test B flooded paddy test, ducksalad; details: Flood, 250 g ai/ha, applied to paddy water, 2-leaf stage, visual evaluation after 13 to 15 d
Method in brief: (§2)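 2-leaf seedlings; pots flooded 3 cm above soil; compound added straight to paddy water; depth maintained. Greenhouse 13–15 d. Visual rating vs controls, 0–100 scale (0 = no effect, 100 = complete control).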

[4] = test system: foxtail, giant (Setaria faberii); test: Test A postemergence, giant foxtail; details: 0 to 100 scale
Method in brief: as §1

[5] = test system: kochia (Kochia scoparia); test: Test A postemergence, kochia; details: 0 to 100 scale
Method in brief: as §1

[6] = test system: kochia (Kochia scoparia); test: Test A preemergence, kochia; details: 0 to 100 scale; for Kochia plant response rating: 0 is no effect, 100 is complete control
Method in brief: as §1

[7] = test system: corn (Zea mays); test: Test A postemergence, corn; details: 0 to 100 scale
Method in brief: as §1

[8] = test system: galium (catchweed bedstraw, Galium aparine); test: Test A postemergence, galium; details: 0 to 100 scale
Method in brief: as §1

[9] = test system: ryegrass, Italian (Lolium multiflorum); test: Test A preemergence, Italian ryegrass; details: 0 to 100 scale; for Ryegrass, Italian plant response rating: 0 is no effect, 100 is complete control
Method in brief: as §1

[10] = test system: blackgrass (Alopecurus myosuroides); test: Test A postemergence, blackgrass; details: 0 to 100 scale
Method in brief: as §1

[11] = test system: ragweed (common ragweed, Ambrosia elatior); test: Test A preemergence, ragweed; details: 0 to 100 scale; for Ragweed plant response rating: 0 is no effect, 100 is complete control
Method in brief: as §1

[12] = test system: barnyardgrass (Echinochloa crus-galli); test: Test B flooded paddy test, barnyardgrass; details: Flood, 250 g ai/ha, applied to paddy water, 2-leaf stage, visual evaluation after 13 to 15 d
Method in brief: as §2

[13] = test system: pigweed (Amaranthus retroflexus); test: Test A preemergence, pigweed; details: 0 to 100 scale; for Pigweed plant response rating: 0 is no effect, 100 is complete control
Method in brief: as §1

[14] = test system: rice (Oryza sativa); test: Test B flooded paddy test, rice; details: Flood, 250 g ai/ha, applied to paddy water, 2-leaf stage, visual evaluation after 13 to 15 d
Method in brief: as §2

[15] = test system: sedge, umbrella (small-flower umbrella sedge, Cyperus difformis); test: Test B flooded paddy test, umbrella sedge; details: Flood, 250 g ai/ha, applied to paddy water, 2-leaf stage, visual evaluation after 13 to 15 d
Method in brief: as §2

[16] = test system: foxtail, giant (Setaria faberii); test: Test A preemergence, giant foxtail; details: 0 to 100 scale; for Foxtail, Giant plant response rating: 0 is no effect, 100 is complete control
Method in brief: as §1

[17] = test system: barnyardgrass (Echinochloa crus-galli); test: Test A preemergence, barnyardgrass; details: 0 to 100 scale; for Barnyardgrass plant response rating: 0 is no effect, 100 is complete control
Method in brief: as §1

[18] = test system: ryegrass, Italian (Lolium multiflorum); test: Test A postemergence, Italian ryegrass; details: 0 to 100 scale
Method in brief: as §1

[19] = test system: wheat (Triticum aestivum); test: Test A postemergence, wheat; details: 0 to 100 scale
Method in brief: as §1

[20] = test system: barnyardgrass (Echinochloa crus-galli); test: Test A postemergence, barnyardgrass; details: 0 to 100 scale
Method in brief: as §1

[21] = 125 g ai/ha, 0 no effect, 100 complete control
[22] = 500 g ai/ha, 0 no effect, 100 complete control
[23] = 500 g ai/ha, 0 is no effect, 100 is complete control

Nc1nc(N[C@@H](c2coc3ccccc23)C2CC2)ncc1C(F)(F)F [Compound 79, N2-[(R)-3-benzofuranylcyclopropylmethyl]-5-(trifluoromethyl)-2,4-pyrimidinediamine]
Plant response rating, Ragweed [1, 21]: 80 | Plant response rating, Ragweed [1, 22]: 90 | Plant response rating, Pigweed [2, 21]: 100 | Plant response rating, Pigweed [2, 22]: 100 | Plant response rating, Ducksalad (0 to 100 scale, 0 is no effect, 100 is complete control) [3]: 98 | Plant response rating, Foxtail, Giant [4, 21]: 60 | Plant response rating, Foxtail, Giant [4, 22]: 90 | Plant response rating, Kochia [5, 21]: 90 | Plant response rating, Kochia [5, 22]: 90 | Kochia plant response rating ([6]; 125 g ai/ha): 0 | Kochia plant response rating ([6]; 500 g ai/ha): 0 | Plant response rating, Corn [7, 21]: 0 | Plant response rating, Corn [7, 22]: 70 | Plant response rating, Galium [8, 21]: 70 | Plant response rating, Galium [8, 22]: 90 | Ryegrass, Italian plant response rating ([9]; 125 g ai/ha): 100 | Ryegrass, Italian plant response rating ([9]; 500 g ai/ha): 100 | Plant response rating, Blackgrass [10, 21]: 60 | Plant response rating, Blackgrass [10, 22]: 90 | Ragweed plant response rating ([11]; 125 g ai/ha): 100 | Ragweed plant response rating ([11]; 500 g ai/ha): 100 | Plant response rating, Barnyardgrass (0 to 100 scale, 0 is no effect, 100 is complete control) [12]: 55 | Pigweed plant response rating ([13]; 125 g ai/ha): 90 | Pigweed plant response rating ([13]; 500 g ai/ha): 100 | Plant response rating, Rice (0 to 100 scale, 0 is no effect, 100 is complete control) [14]: 10 | Plant response rating, Sedge, Umbrella (0 to 100 scale, 0 is no effect, 100 is complete control) [15]: 95 | Foxtail, Giant plant response rating ([16]; 125 g ai/ha): 100 | Foxtail, Giant plant response rating ([16]; 500 g ai/ha): 100 | Barnyardgrass plant response rating ([17]; 125 g ai/ha): 90 | Barnyardgrass plant response rating ([17]; 500 g ai/ha): 100 | Plant response rating, Ryegrass, Italian [18, 21]: 60 | Plant response rating, Ryegrass, Italian [18, 22]: 80 | Plant response rating, Wheat [19, 21]: 0 | Plant response rating, Wheat [19, 22]: 20 | Plant response rating, Barnyardgrass [20, 21]: 70 | Plant response rating, Barnyardgrass [20, 22]: 100

CC[C@@H](Nc1ncc(C(F)(F)F)c(N)n1)c1cc2ccccc2s1 [Compound 43]
Plant response rating, Ragweed [1, 21]: 60 | Ragweed plant response rating [1, 23]: 90 | Plant response rating, Pigweed [2, 21]: 100 | Pigweed plant response rating [2, 23]: 100 | Plant response rating, Ducksalad (0 to 100 scale, 0 is no effect, 100 is complete control) [3]: 0 | Plant response rating, Foxtail, Giant [4, 21]: 30 | Foxtail, Giant plant response rating [4, 23]: 100 | Plant response rating, Kochia [5, 21]: 90 | Kochia plant response rating [5, 23]: 90 | Kochia plant response rating ([6]; 125 g ai/ha): 90 | Kochia plant response rating ([6]; 500 g ai/ha): 100 | Plant response rating, Corn [7, 21]: 0 | Corn plant response rating [7, 23]: 20 | Plant response rating, Galium [8, 21]: 70 | Galium plant response rating [8, 23]: 90 | Ryegrass, Italian plant response rating ([9]; 125 g ai/ha): 20 | Ryegrass, Italian plant response rating ([9]; 500 g ai/ha): 50 | Plant response rating, Blackgrass [10, 21]: 0 | Blackgrass plant response rating [10, 23]: 20 | Ragweed plant response rating ([11]; 125 g ai/ha): 100 | Ragweed plant response rating ([11]; 500 g ai/ha): 100 | Plant response rating, Barnyardgrass (0 to 100 scale, 0 is no effect, 100 is complete control) [12]: 0 | Pigweed plant response rating ([13]; 125 g ai/ha): 90 | Pigweed plant response rating ([13]; 500 g ai/ha): 100 | Plant response rating, Rice (0 to 100 scale, 0 is no effect, 100 is complete control) [14]: 0 | Plant response rating, Sedge, Umbrella (0 to 100 scale, 0 is no effect, 100 is complete control) [15]: 0 | Foxtail, Giant plant response rating ([16]; 125 g ai/ha): 80 | Foxtail, Giant plant response rating ([16]; 500 g ai/ha): 90 | Barnyardgrass plant response rating ([17]; 125 g ai/ha): 70 | Barnyardgrass plant response rating ([17]; 500 g ai/ha): 70 | Plant response rating, Ryegrass, Italian [18, 21]: 40 | Ryegrass, Italian plant response rating [18, 23]: 40 | Plant response rating, Wheat [19, 21]: 0 | Wheat plant response rating [19, 23]: 0 | Plant response rating, Barnyardgrass [20, 21]: 20 | Barnyardgrass plant response rating [20, 23]: 100

CC[C@@H](Nc1ncc(C(F)(F)F)c(N)n1)c1cc2ccccc2o1 [Compound 21]
Plant response rating, Ragweed ([1]; 1000 g ai/ha): 80 | Plant response rating, Pigweed ([2]; 1000 g ai/ha): 100 | Plant response rating, Ducksalad (0 to 100 scale, 0 is no effect, 100 is complete control) [3]: 60 | Plant response rating, Foxtail, Giant ([4]; 1000 g ai/ha): 70 | Plant response rating, Kochia ([5]; 1000 g ai/ha): 90 | Plant response rating, Kochia ([6]; 1000 g ai/ha): 80 | Plant response rating, Corn ([7]; 1000 g ai/ha): 100 | Plant response rating, Galium ([8]; 1000 g ai/ha): 80 | Plant response rating, Ryegrass, Italian ([9]; 1000 g ai/ha): 80 | Plant response rating, Blackgrass ([10]; 1000 g ai/ha): 80 | Plant response rating, Ragweed ([11]; 1000 g ai/ha): 100 | Plant response rating, Barnyardgrass (0 to 100 scale, 0 is no effect, 100 is complete control) [12]: 0 | Plant response rating, Pigweed ([13]; 1000 g ai/ha): 100 | Plant response rating, Rice (0 to 100 scale, 0 is no effect, 100 is complete control) [14]: 0 | Plant response rating, Sedge, Umbrella (0 to 100 scale, 0 is no effect, 100 is complete control) [15]: 65 | Plant response rating, Foxtail, Giant ([16]; 1000 g ai/ha): 100 | Plant response rating, Barnyardgrass ([17]; 1000 g ai/ha): 100 | Plant response rating, Ryegrass, Italian ([18]; 1000 g ai/ha): 50 | Plant response rating, Wheat ([19]; 1000 g ai/ha): 0 | Plant response rating, Barnyardgrass ([20]; 1000 g ai/ha, 0 no effect, 100 complete control): 80

C[C@@H](Nc1ncc(C(F)(F)F)c(N)n1)c1cc2cc(Cl)ccc2o1 [Compound 2]
Plant response rating, Ragweed ([1]; 125 g ai/ha): 0 | Plant response rating, Ragweed ([1]; 500 g ai/ha): 20 | Plant response rating, Pigweed ([2]; 125 g ai/ha): 40 | Plant response rating, Pigweed ([2]; 500 g ai/ha): 90 | Plant response rating, Ducksalad (0 to 100 scale, 0 is no effect, 100 is complete control) [3]: 0 | Plant response rating, Foxtail, Giant ([4]; 125 g ai/ha): 0 | Plant response rating, Foxtail, Giant ([4]; 500 g ai/ha): 0 | Plant response rating, Kochia ([5]; 125 g ai/ha): 0 | Plant response rating, Kochia ([5]; 500 g ai/ha): 0 | Plant response rating, Kochia ([6]; 125 g ai/ha): 0 | Plant response rating, Kochia ([6]; 500 g ai/ha): 0 | Plant response rating, Corn ([7]; 125 g ai/ha): 0 | Plant response rating, Corn ([7]; 500 g ai/ha): 0 | Plant response rating, Galium ([8]; 125 g ai/ha): 0 | Plant response rating, Galium ([8]; 500 g ai/ha): 30 | Plant response rating, Ryegrass, Italian ([9]; 125 g ai/ha): 0 | Plant response rating, Ryegrass, Italian ([9]; 500 g ai/ha): 0 | Plant response rating, Blackgrass ([10]; 125 g ai/ha): 0 | Plant response rating, Blackgrass ([10]; 500 g ai/ha): 0 | Plant response rating, Ragweed ([11]; 125 g ai/ha): 0 | Plant response rating, Ragweed ([11]; 500 g ai/ha): 0 | Plant response rating, Barnyardgrass (0 to 100 scale, 0 is no effect, 100 is complete control) [12]: 0 | Plant response rating, Pigweed ([13]; 125 g ai/ha): 10 | Plant response rating, Pigweed ([13]; 500 g ai/ha): 20 | Plant response rating, Rice (0 to 100 scale, 0 is no effect, 100 is complete control) [14]: 0 | Plant response rating, Sedge, Umbrella (0 to 100 scale, 0 is no effect, 100 is complete control) [15]: 0 | Plant response rating, Foxtail, Giant ([16]; 125 g ai/ha): 0 | Plant response rating, Foxtail, Giant ([16]; 500 g ai/ha): 0 | Plant response rating, Barnyardgrass ([17]; 125 g ai/ha): 0 | Plant response rating, Barnyardgrass ([17]; 500 g ai/ha): 0 | Plant response rating, Ryegrass, Italian ([18]; 125 g ai/ha): 0 | Plant response rating, Ryegrass, Italian ([18]; 500 g ai/ha): 0 | Plant response rating, Wheat ([19]; 125 g ai/ha): 0 | Plant response rating, Wheat ([19]; 500 g ai/ha): 0 | Plant response rating, Barnyardgrass ([20]; 125 g ai/ha): 0 | Plant response rating, Barnyardgrass ([20]; 500 g ai/ha): 10
